Experiments:
[1] = tested on: Choline Acetyltransferase (ChAT) mRNA; assay: Measurement of choline acetyltransferase (ChAT) mRNA expression levels in the rat septal area; assay type: in vivo; conditions: SD rat medial septum, 24 hours after administration, qPCR
Method: Measurement of Choline Acetyltransferase (ChAT) mRNA Expression Levels in the Rat Septal Area
(1) Compound Administration
In this study, SD male rats (Charles River Laboratories Japan, Inc.) with a body weight of about 250 to 350 g were used. The compound was dissolved in 0.01 mol/L hydrochloric acid, and orally administered.
At 24 hours after the administration of the compound, the whole brain tissue was collected under pentobarbital anesthesia. The medial septum was isolated from whole brain on ice and frozen with liquid nitrogen, and then stored at −80° C.
(3) Measurement of ChAT mRNA Expression Levels
For RNA purification, RNeasy Plus Mini Kit (#74136: QIAGEN) was used in this study. RNA purification was performed by the method described in the kit. After RNA purification, the total RNA concentration was measured by using QIAxpert Instrument (QIAGEN). cDNA was synthesized using SuperScript® VILO™ cDNA Synthesis Kit (#11754: Thermo Fisher Scientific). The synthesis of cDNA was performed by the method described in the kit. The synthesized cDNA was diluted 4 times with RNase free water, and the diluted cDNA solution was used as a sample. Taqman Universal PCR Master Mix (#4304437: Thermo Fisher Scientific), Taqman® Gene Expression Assays, INVENTORIED (#4331182: Thermo Fisher Scientific), RNase free water, and the cDNA solution were mixed in amounts of 10 μl, 1 μl, 4 μl, and 5 μl, respectively, and the resulting mixture was used as a measurement sample solution. Quantitative polymerase chain reaction (qPCR) was conducted using ABI PRISM® 7900HT (Thermo Fisher Scientific) by a fluorescence probe method. Analysis was performed by SDS 2.4 (Thermo Fisher Scientific). The results were calculated by the percentage of the amount of ChAT mRNA expression levels in the compound administration group increased from the amount of ChAT mRNA expression levels in the vehicle administration group.

[2] = tested on: rat primary septal neuron culture; assay: Measurement of acetylcholine (ACh) release in the rat primary septal neuron culture system in the presence of NGF; assay type: cell-based; conditions: rat primary septal neurons, with NGF, one day after compound addition, ACh by HPLC
From the text: Measurement of acetylcholine (ACh) release in the rat primary septal neuron culture system in the presence of NGF
(1) Rat Primary Septal Neuron Culture
The septal area was isolated from Sprague-Dawley (SD) rats (Charles River Laboratories Japan, Inc.) at a fetal age of 18 days, and cultured.
Specifically, fetuses were aseptically removed from pregnant rats under isoflurane anesthesia. The brain was extracted from each fetus, and immersed in ice-cooled L-15 medium (11415-064, Thermo Fisher Scientific). The septal area was dissected from the extracted brain under a stereoscopic microscope. The dissected septal area was subjected to enzyme treatment in an enzyme solution containing 0.25% trypsin (15050-065, Thermo Fisher Scientific) and 0.01% DNase (D5025-150KU, Sigma) at 37° C. for 30 minutes, thereby dispersing the cells. In this case, the enzyme reaction was terminated by adding inactivated horse serum (26050-088, Thermo Fisher Scientific). The enzyme-treated solution was centrifuged at 1000 rpm for 3 minutes, and the supernatant was removed. A medium in an amount of 10 mL was added to the obtained cell mass. The medium used was Dulbecco's Modified Eagle's Medium (044-29765, WAKO) supplemented with N2 supplement (17502-048, Thermo Fisher Scientific), 1 mM sodium pyruvate (11360-070, Thermo Fisher Scientific), and Penicillin-Streptomycin (15140-1221, Thermo Fisher Scientific). The cells of the cell mass to which the medium was added were redispersed by gentle pipetting, and then centrifuged again at 1000 rpm for 3 minutes, and the supernatant was removed. The medium in an amount of 10 mL was added to the obtained cell mass, and the cell dispersion was filtered through a 40-μm nylon mesh (Cell Strainer) to remove the cell mass, thereby obtaining a neuronal cell suspension. The neuronal cell suspension was diluted with the medium, and 10% inactivated bovine serum (26140-079, Thermo Fisher Scientific) and 10% inactivated horse serum were added. Thereafter, 100 μL/well of the suspension was seeded in a 96-well plate (354461, CORNING) pre-coated with poly-D-lysine so that the initial culture density was 1.4×10^5 cells/cm^2. After the seeded cells were cultured under 5% CO2-95% air in a 37° C. incubator for 2 days, the entire medium was replaced with 120 μL of fresh medium, and the cells were subsequently cultured for 5 days.
On the 7th day of culture, compound was added in the following manner. A solution of the test compound in DMSO was diluted with the medium so that the concentration was 10 times higher than the final concentration. NGF (450-01, PEPRO TECH, INC.) was prepared at 0.3 ng/mL. These two solutions were added each in an amount of 15 μL/well, and the mixture was mixed well. The final DMSO concentration was 0.1% or less. Moreover, only DMSO and NGF were added to the control group.
(3) ACh Release Measurement
One day after compound addition, an amount of ACh release was measured by HPLC in the following manner. A warmed buffer was added at 100 μL/well to the well after the medium was eliminated, and the buffer was immediately removed. Thereafter, a buffer to which 10 μm choline, 10 μm physostigmine, and 6 mM KCl were added was added at 120 μL/well. The buffer was prepared by adding 125 mM NaCl, 25 mM 4-(2-hydroxyethyl)-1-piperazineethanesulfonic acid, 1.2 mM KH2PO4, 1.2 mM MgSO4, 2.2 mM CaCl2 (2H2O), and 10 mM glucose to sterilized water, and the final pH of the solution was set to 7.4. After the 96-well plate to which the buffer was added was incubated under 5% CO2-95% air in a 37° C. incubator for 40 minutes, 80 μL of buffer was collected. An internal standard solution IPHC (5×10^−7 M) was added in an amount of 6 μL to the collected buffer, and the buffer was transferred to a tube for HPLC measurement and subjected to HPLC measurement. […]

SMILES	Amount (%) increased from the amount of ChAT mRNA expression levels in the vehicle administration group ([1]; oral 10 mg/kg)	Concentration (μM) showing a 20% or more increase from the amount of ACh in the control group [2]	Amount (%) increased from the amount of ChAT mRNA expression levels in the vehicle administration group ([1]; oral 3 mg/kg)
CN1CCc2c(sc3nc4n(c(=O)c23)[C@H]2CCC[C@@H]2C(=O)N(C)C4)C1 [Example 6, (3aS,14aS)-5,10-dimethyl-3,3a,5,6,9,10,11,12-octahydro-H-cyclopenta[f]pyrido[4″,3″:4′,5′]thieno[2′,3′:4,5]pyrimido[1,2-a][1,4]diazepine-4,13(2H,14aH)-dione]	32.0%	0.03 µM	–
CN1CCc2c(sc3nc4n(c(=O)c23)[C@@H]2CCC[C@@H]2C(=O)N(C)C4)C1 [Example 4, (3aS,14aR)-5,10-dimethyl-3,3a,5,6,9,10,11,12-octahydro-1H-cyclopenta[f]pyrido[4″,3″:4′,5′]thieno[2′,3′:4,5]pyrimido[1,2-a][1,4]diazepine-4,13(2H,14aH)-dione]	42.4%	0.1 µM	–
CN1CCc2c(sc3nc4n(c(=O)c23)[C@@H]2CCC[C@H]2C(=O)N(C)C4)C1 [Example 5, (3aR,14aR)-5,10-dimethyl-3,3a,5,6,9,10,11,12-octahydro-1H-cyclopenta[f]pyrido[4″,3″:4′ 5′]thieno[2′,3′:4,5]pyrimido[1,2-a][1,4]diazepine-4,13(2H,14aH)-dione]	–	0.1 µM	33.6%
CN1CCc2c(sc3nc4n(c(=O)c23)-c2ccsc2C(=O)N(C)C4)C1 [Example 2, 5,10-dimethyl-5,6,9,10,11,12-hexahydropyrido[4″,3″:4′,5′]thieno[2′,3′:4,5]pyrimido[1,2-a]thieno[2,3-f][1,4]diazepine-4,13-dione]	–	0.1 µM	38.0%

— US10239889B1, “Pentacyclic compound” (Eisai R&D Management Co., Ltd., priority 2017, dated 2019)
